Laboratory results published in patent US5763435A, “Sulfate conjugates of ursodeoxycholic acid, and their beneficial use in inflammatory disorders” (priority 1995, dated 1998).
“And” between values parts separate entries of the source, which are not always exact repeats. Equal values may be shown once. “Also recorded” adds a separate entry of the source.

How the values were obtained:
[1] = tested on: bile-flow; test: Bile-flow and bile acid secretion during i.v. infusion; type: in vivo, Sprague-Dawley rats; conditions: for Bile flow, maximum / Bile salt output (biliary bile acid secretion rate), maximum: i.v. infusion 0.5, 1.0, 2.0 μmol/min/100 g, mean ± SEM, six animals; for Apparent choleretic activity (slope of regression line): bile acid secretion rate vs bile-flow
Protocol: (§1) Adult male Sprague-Dawley rats (body weight 200-230 g) were anesthetized by an intraperitoneal injection of pentobarbital (Nembutal, 7.5 mg/100 g body weight), and maintained under sedation by additional doses. The right jugular vein and the common bile duct were cannulated using PE-50 polyethylene tubing (Clay-Adams, Parsippany, N.J.). Body temperature was maintained throughout the experiment at 37° C. using a rectal probe and a thermostatically controlled heating pad (Harvard Apparatus Co., Inc., Millis, Mass.). Saline was infused at a rate of 1.0 ml/h using a Harvard pump (Harvard Apparatus Co., Inc.) into the jugular vein for a control period of 2h. After collecting two 10 minute bile samples for base-line analysis, the bile acids were individually infused intravenously (i.v.) for 30 minutes in stepwise increasing doses (0.5, 1.0, and 2.0 μmol/min/100 g body weight). Bile acid solutions were prepared in 3% human albumin in 0.45% saline. Six animals were used for each experiment and bile was collected every 10 minutes into preweighed tubes. At the end of the experiment, blood was obtained by cardiac puncture, and urine was obtained by aspiration of the bladder. All biological specimens were stored at -20° C. This animal study protocol (#1 B 10044) was approved by the Bioethics committee of the Children's Hospital Medical Center (Cincinnati, Ohio).
Bile volume was determined gravimetrically assuming a density of 1 g/ml. Total 3α-hydroxy bile acid concentration in the bile was measured enzymatically before solvolysis (nonsulfated bile acids) and after solvolysis (total bile acids) (Mashige, F., et al., Direct spectrometry of total bile acids in serum. Clin. Chem. 27: 1352-1356 (1981)). The bile acid output was calculated by multiplying the rate of bile-flow by the bile acid concentration. Biliary phospholipids were determined by an enzymatic procedure based on the choline oxidase method (Nippon Shoji Kaisha, Ltd., Osaka, Japan) (Grantz, D., et al., Enzymatic measurement of choline-containing phospholipids in bile. J. Lipid Res. 22: 273-276 (1981)). Cholesterol was also measured enzymatically (Boehringer Mannehim, Indianapolis, Ind.) (Fromm, H., et al., Use of a simple enzymatic assay for cholesterol analysis in human bile. J. Lipid Res. 21: 259-261 (1980)).
Results were expressed as mean±standard error of mean (SEM). Bile-flow and biliary lipid output were expressed as μl /min/g liver and nmol/min/g liver, respectively. Statistical analysis was made using INSTAT program (Graphpad Software Inc., San Diego, Calif.). Parametric data among groups were analyzed using Student's t-test. The statistical comparisons between the different groups were made by one-way analysis of variance (ANOVA). […] Linear regression analysis was performed. The choleretic activity of each bile acid was determined from the slope of regression line of the correlation between the bile acid secretion rate and bile-flow and was expressed as […]. Comparisons between slopes were made by one-way ANOVA.

[2] = Hepatic biotransformation of infused bile acid (negative ion FAB-MS, conjugate separation); type: in vivo, Sprague-Dawley rats; conditions: i.v. infusion
Protocol: as §1
Negative ion fast atom bombardment-mass spectrometry (FAB-MS) spectra of bile samples, urine and synthetic compounds were obtained after placing the equivalent of approximately 1 μl of the original bile extract, 10 μl-50 μl of the urine extract and jig quantities of synthetic bile acids dissolved in methanol onto a small drop of a glycerol matrix spotted on a copper target of the FAB probe. This probe was introduced directly into the ion source of the mass spectrometer and a beam of fast atoms of either xenon generated with a saddle field atom gun (ion Tech, Teddington, Middlesex, UK) operated at 8 kV and 20 μA, or cesium generated from cesium iodine (35 kV), was fired at the target containing the sample. Negative ion spectra were obtained over the mass range of 50-1000 Da/e.
For the determination of hepatic biotransformation of the infused bile acid, bile collections from the six animal were pooled and biliary bile acids were determined by GC-MS after extraction, solvolysis, hydrolysis, and derivatization. Quantification of bile acids was achieved using GC, by comparing the peak height response of the individual bile acid with the peak height response obtained from the internal standard, nordeoxycholic acid added to the initial sample of bile. Identification of a bile acid was made on the basis of the retention index relative to a homologous series of n-alkanes, referred to as the methylene unit value (MU) and the fragmentation pattern of the mass spectrum was compared with authentic standards. A list of over 100 mass spectra of authentic bile acid standards and retention indices was recently compiled as a reference source (Lawson, A. M., et al, Mass spectrometry of bile acids, The Bile Acids, Vol. 4, Methods and Applications, pp. 167-267 (1988)).
In the case of the animals infused with UDCA-3S, bile was collected during the final period of bile acid infusion ([…]). Bile acids were solvolyzed and separated into groups based on their mode of conjugation using the lipophilic anion exchange gel, diethylaminohydroxypropyl Sephadex LH-20; Packard Instruments, Groningen, The Netherlands). Bile acid composition was determined in each fraction by GC-MS after hydrolysis and preparation of the Me-TMS ethers.

Row | Structure (SMILES) | Bile flow, maximum [1] | Bile salt output (biliary bile acid secretion rate), maximum [1] | Apparent choleretic activity (slope of regression line) ([1]; i.v. infusion) | Hepatic biotransformation / form secreted in bile (in words) [2] | Choleretic effect / order of maximum bile-flow (in words) ([1]; i.v. infusion) | Hepatic biotransformation / form secreted in bile (in words) ([2]; listed as C-3 sulfate of UDCA) | Hepatic biotransformation / form secreted in bile (in words) ([2]; listed as UDCA-7-sulfate) | Hepatic biotransformation / form secreted in bile (in words) ([2]; listed as UDCA-disulfate)
1 | C[C@H](CCC(=O)O)[C@H]1CC[C@H]2[C@@H]3[C@@H](O)C[C@@H]4C[C@H](O)CC[C@]4(C)[C@H]3CC[C@]12C [UDCA, 3 alpha, 7 beta-dihydroxy-5 beta-cholan-24oic acid, reference compound] | 4.88 ± 0.16 μl/min/g liver | 145.10 ± 17.30 nmol/min/g liver and 145.1±17.3 nmol/min/g liver | 16 ± 2 µL/µmol | almost exclusively conjugated with taurine and glycine; also recorded: mainly conjugated with taurine, and to a lesser extent was converted to glycine, sulfate and flucuronide conjugates | – | – | – | –
2 | C[C@H](CCC(=O)O)[C@H]1CC[C@H]2[C@@H]3[C@@H](O)C[C@@H]4C[C@H](OS(=O)(=O)O)CC[C@]4(C)[C@H]3CC[C@]12C [UDCA-3S, ursodeoxycholic acid 3-sulfate] | 3.34 ± 0.13 μl/min/g liver | 138.90 ± 11.80 nmol/min/g liver and 138.9±11.8 nmol/min/g liver | 13 ± 1 µL/µmol | – | less effective in stimulating bile-flow than unconjugated UDCA | secreted into bile to a limited extent unchanged, but also underwent appreciable amidation with taurine and glycine and further hydroxylation | – | –
3 | C[C@H](CCC(=O)O)[C@H]1CC[C@H]2[C@@H]3[C@@H](OS(=O)(=O)O)C[C@@H]4C[C@H](O)CC[C@]4(C)[C@H]3CC[C@]12C [UDCA-7S, ursodeoxycholic acid 7-sulfate] | 5.83 ± 0.31 μl/min/g liver | 255.40 ± 18.20 nmol/min/g liver and 255.4±18.2 nmol/min/g liver | 15 ± 1 µL/µmol | No other significant ions were present to indicate further metabolic transformation; also recorded: not amidated with taurine or glycine | – | – | secreted into bile unchanged | –
4 | C[C@H](CCC(=O)O)[C@H]1CC[C@H]2[C@@H]3[C@@H](OS(=O)(=O)O)C[C@@H]4C[C@H](OS(=O)(=O)O)CC[C@]4(C)[C@H]3CC[C@]12C [UDCA-DS, ursodeoxycholic acid 3,7-disulfate] | 5.92 ± 0.21 μl/min/g liver | 222.40 ± 24.30 nmol/min/g liver and 222.4±24.3 nmol/min/g liver | 16 ± 1 µL/µmol | No other ions were present to suggest further metabolic transformation; also recorded: not amidated with taurine or glycine | – | – | – | secreted into bile unchanged
